Data: EPA's ToxValDB 9.5 (doi:10.2903/j.efsa.2011.2096)
Values after ≈ are worked out from the molar mass of the structure shown.

How the values were obtained:
Anas platyrhynchos = conditions: oral, mortality
Apis mellifera = conditions: acute; duration: 48 hours; oral; unspecified; mortality
Canidae = conditions: chronic; duration: 1 years; oral; Dog Other; body weight
Colinus virginianus = conditions: mortality
Daphnia magna = conditions: chronic/long-term; duration: 21 days; reproduction
Lepomis macrochirus = conditions: acute; duration: 96 hours; mortality
Oryctolagus sp. = conditions: developmental; development
Pimephales promelas = conditions: chronic/long-term; duration: 21 days
Plant = conditions: chronic/long-term; seedling emergence
Aphidius rhopalosiphi = assay: LR50; higher = less toxic; conditions: not reported; mortality
Typhlodromus pyri = assay: LR50; higher = less toxic; conditions: not reported; mortality

How did the LD50 (Anas platyrhynchos; acute, unspecified) turn out when O=c1c2cc(F)ccc2nc(-n2cncn2)n1-c1ccc(Cl)cc1Cl [Fluquinconazole] was run?
Its LD50 is > 2000 mg/kg-day.

And the LC50 (Anas platyrhynchos; short-term, feed)?
The LC50 was > 210 mg/kg-day.

And the LD50 (Apis mellifera)?
Its LD50 is > 100 µg/piece.

What about the NOAEL (Canidae) of the same molecule?
The NOAEL was 0.2 mg/kg-day.

And the LC50 (Colinus virginianus; acute, oral, diet)?
Its LC50 is 704 mg/kg-day.

And the LD50 (Colinus virginianus; acute, oral)?
The LD50 was > 2000 mg/kg-day.

What about the NOEC (Colinus virginianus; reproduction developmental) of the same molecule?
The NOEC was 1.9 mg/kg-day.

And the NOEC (Daphnia magna)?
The NOEC was 0.648 mg/L.

What about the LC50 (Lepomis macrochirus) of the same molecule?
Its LC50 is 1.34 mg/L (≈ 3.56 µM).

What about the NOAEL (Oryctolagus sp.) of the same molecule?
The NOAEL was 2 mg/kg-day.

What about the NOEC (Pimephales promelas) of the same molecule?
The NOEC was 0.154 mg/L.

What about the NOEC (Plant) of the same molecule?
The NOEC was > 1000 g/ha.

And the LD50 (Rattus norvegicus; acute, oral, mortality)?
The LD50 was 112 mg/kg-day.

What about the NOAEL (Rattus norvegicus; chronic, mortality) of the same molecule?
Its NOAEL is 0.9 mg/kg-day.

What about the NOAEL (Rattus norvegicus; developmental, development) of the same molecule?
The NOAEL was 2 mg/kg-day.

What about the LC50 (Tagia sp.; acute, duration: 14 days, mortality) of the same molecule?
Its LC50 is > 1000 mg/kg.

What about the NOEC (Tagia sp.; chronic/long-term, duration: 56 days) of the same molecule?
Its NOEC is 0.5 mg/kg.

And the LR50 (Aphidius rhopalosiphi)?
The LR50 was < 149 g/ha.

And the LR50 (Typhlodromus pyri)?
Its LR50 is < 149 g/ha.
